Here are results for one compound from patent US20260355115A1, “SUSTAINED-RELEASE MICROSPHERES INCLUDING GLP-1 RECEPTOR AGONIST OR PHARMACEUTICALLY ACCEPTABLE SALT THEREOF AND USE THEREOF” (PEPTRON, INC., priority 2022, published 2026).

SMILES strings stand for the structures.

Data set [1] can be described thus: Evaluation of anti-obesity efficacy in diet-induced obesity (DIO) mouse model. Conditions: 0.1 mpk s.c. QD, 8 weeks, 60% HFD. Type of data set: in vivo, C57BL/6J-DIO mice. The method, then:
The sustained-release formulation of Example 3 according to the present invention was administered to a diet-induced obesity (DIO) mouse model to confirm the anti-obesity efficacy.
Sixteen-week-old male C57BL/6J and C57BL/6J-DIO mice (The Jackson Laboratory (JAX), Saeron Bio) were used in the study. After introduction, the mice were sufficiently fed with a regular chow diet (5 kcal % of fat, PicoLab, #5053, USA) or a high fat diet (60 kcal % of fat, Research diet, D12492, USA) together with water, maintained at a temperature of 22±2 °C and a humidity of 50±10%, and acclimated in individual cages under an automatically controlled 12-hour light/dark cycle (dark: 7 pm to 7 am). After one week of acclimation, all prepared subjects were administered and acclimated, and clinical signs (activity, stool abnormalities, bleeding, wounds, deformities, skin, hair, eye abnormalities, etc.) were observed twice a day (when administered in the morning and when monitored in the afternoon).
To evaluate body weight and food intake, the drug was administered for 8 weeks under conditions described in Table 6, and body weight (FX-2000i, A&D company, 0.01 to 2200 g) and food intake (CSG201F, OHAUS, 0.1 g to 200 g) were measured daily starting from the first day of administration. All result values were expressed as the mean±standard error, and the statistical significance of the group was calculated through an independent t-test between test substance administration groups.
The body weight measurement results were shown in FIG. 5A, and the body weight gain rate (ΔBody weight from baseline (vs Con(-)), %) was shown in FIG. 5B. This was shown as the body weight change (%) calculated by comparing the drug-administered groups to the negative control group.

Data set [2] can be described thus: Pharmacokinetic profile of sustained-release formulation in minipigs (s.c., LC-MS/MS of blood). Type of data set: in vivo. Conditions: 0.08 mpk. The method, then: Next, in order to evaluate the pharmacokinetics in medium-sized animals, the sustained-release formulation of Example 3 according to the present invention was administered to minipigs, and the drug release patterns within the microspheres in the body were evaluated.
After subcutaneous injection (S.C) of drug at a dose of 0.08 mpk (mg/kg) into 20 to 30 kg of male SPF minipigs, the blood concentration of semaglutide was observed over time. A 2.5 ml of blood was collected from the jugular vein at 1 hour, 6 hours, 12 hours, 24 hours, 2 days, 3 days, 5 days, 7 days, 9 days, 11 days, 14 days, 16 days, 18 days, 21 days, 24 days, 28 days, 31 days, 35 days, 42 days, 49 days, 56 days, 63 days, and 70 days (total 23 points) after injection, respectively, stored at −80 °C, and then subjected to LC-MS/MS analysis.

For the compound `CC[C@H](C)[C@H](NC(=O)[C@H](Cc1ccccc1)NC(=O)[C@H](CCC(=O)O)NC(=O)[C@H](CCCCNC(=O)COCCOCCNC(=O)COCCOCCNC(=O)CC[C@H](NC(=O)CCCCCCCCCCCCCCCCC(=O)O)C(=O)O)NC(=O)[C@H](C)NC(=O)[C@H](C)NC(=O)[C@H](CCC(N)=O)NC(=O)CNC(=O)[C@H](CCC(=O)O)NC(=O)[C@H](CC(C)C)NC(=O)[C@H](Cc1ccc(O)cc1)NC(=O)[C@H](CO)NC(=O)[C@H](CO)NC(=O)[C@@H](NC(=O)[C@H](CC(=O)O)NC(=O)[C@H](CO)NC(=O)[C@@H](NC(=O)[C@H](Cc1ccccc1)NC(=O)[C@@H](NC(=O)CNC(=O)[C@H](CCC(=O)O)NC(=O)C(C)(C)NC(=O)[C@@H](N)Cc1cnc[nH]1)[C@@H](C)O)[C@@H](C)O)C(C)C)C(=O)N[C@@H](C)C(=O)N[C@@H](Cc1c[nH]c2ccccc12)C(=O)N[C@@H](CC(C)C)C(=O)N[C@H](C(=O)N[C@@H](CCCNC(=N)N)C(=O)NCC(=O)N[C@@H](CCCNC(=N)N)C(=O)NCC(=O)O)C(C)C` [semaglutide, N^6,26-{18-[N-(17carboxyheptadecanoyl)-L-γ-glutamyl]-10-oxo-3,6,12,15-tetraoxa-9,18-diazaoctanoyl}-[8 (2-amino-2-propanoic acid), 34-L-arginine] human glucagon-like peptide 1(7-37)], in data set [1], the “Body weight loss rate (ΔBody weight from baseline vs Con(-))” value is recorded as “statistically significant (p<0.05) body weight loss rate”, the “Body weight vs negative control group” value is listed as “statistically significant decrease (p<0.05) in body weight” and the “Food intake vs negative control group” value is on record as “statistically significant decrease (p<0.05) in food intake”. Also, the “Initial burst release or delayed release” value in data set [2] (formulation containing the microspheres of Example 3) is recorded as “no initial burst release or delayed release in minipigs”. Also, in data set [2] (formulation containing the microspheres of Example 3, compared with S.D. rats), the “Release duration of semaglutide” value is on record as “longer in minipigs”.
